PubChem BioAssay AID1845205 (Molecular Pharmacology Branch, DTP, NCI, 2023)
pIC50: −log10 of the molar value. Several values for one entry are separate records, joined by “and”; a condition that tells them apart may be missing. Equal values may be shown once.

Tested on: MPNST multicellular tumor spheroids, viability % test/control
Experiment: Anticancer human tumor MPNST cell line growth inhibition;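 note: spheroids exposed to agents for seven days after three days of growth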;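 for viability, T/C: luminescence signal used as surrogate for viable cell amount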
Conditions: for viability, T/C: stronger effect = lower value
Source text: Multicellular complex tumor spheroid response to DNA repair inhibitors in combination with DNA-damaging drugs
This study explores the anticancer activities of DNA-damaging drugs and inhibitors of DNA damage repair, both as single agents and in combinations. Complex tumor spheroids comprised of malignant cells, endothelial cells and mesenchymal stem cells served as an in vitro model for human solid tumors. This model system incorporates physiologically relevant features and patient-derived or established malignant cell lines with clinically relevant genetic alterations from many tumor types. Twenty-six patient-derived or established malignant cell lines were evaluated representing sarcoma, melanoma, small cell lung cancer (SCLC), non-small cell lung cancer (NSCLC), as well as bladder, ovarian and pancreatic cancers. The concentration ranges selected for each drug and investigational agent were based upon clinically achievable concentrations if the clinical Cmax of the agent was known.
Compounds. The drugs and compounds olaparib (NSC753686), talazoparib (NSC767125), berzosertib (NSC777718), elimusertib (NSC800525), nedisertib (NSC802822), VX-984 (NSC792969), AZD-1390 (NSC803789), temozolomide (NSC362856), topotecan (NSC609699), trabectedin (NSC813783), staurosporine (NSC755774), and gemcitabine (NSC613327) were obtained from the National Cancer Institute (NCI) Developmental Therapeutics Program Chemical Repository. The FDA-approved anticancer drug set is available from the Developmental Therapeutics Program at https://dtp.cancer.gov/organization/dscb/obtaining/available_plates.htm. […] The stock solutions were prepared in dimethyl sulfoxide (DMSO, Sigma-Aldrich, St. Louis, MO, cat. D2650) at 400-fold the tested concentration and stored at -70 degrees C. Prior to their use, the stock solutions were diluted in fresh medium and the final DMSO concentration in the assay was 0.25% (v/v). All drugs and investigational agents were tested over a range starting from a high concentration at or near the clinical Cmax and decreasing in half-log increments. If the clinical Cmax for an agent had not been determined, the highest concentration tested was 10 microM.
Cell Lines. The patient-derived cancer cell (PDC) lines: 156681-154-R-J1-PDC, 283228-195-R-J1-PDC, 287954-098-R-J1-PDC, 292921-168-R-J2-PDC, 349418-098-R-PDC, 425362-245-T-J1-PDC, 556581-035-R-J1-PDC, and BL0293-F563-PDC were received from the NCI Patient-Derived Models Repository (PDMR, https://pdmr.cancer.gov). The established cell lines HS-SY-2 (RRID:CVCL_8719), MPNST, and SYO-1 (RRID:CVCL_7146) were obtained from the Sloan Kettering Institute. The alveolar soft parts sarcoma cell line ASPS-1 (RRID:CVCL_S738) was established at the NCI and grown from internal seed stocks. The following established cell lines were purchased from the American Type Culture Collection (ATCC, Manassas, VA): G-401 (ATCC, cat. CRL-1441, RRID:CVCL_0270), SW982 (ATCC, cat. HTB-93, RRID:CVCL_1734), VA-ES-BJ (ATCC, cat. CRL-2138, RRID:CVCL_1785), NCI-H719 (ATCC, cat. CRL-5837, RRID:CVCL_1582), NCI-H196 (ATCC, cat. CRL-5823, RRID:CVCL_1509), NCI-H841 (ATCC, cat. CRL-5845, RRID:CVCL_1595), NCI-H1618 (ATCC, cat. CRL-5879, RRID:CVCL_1480), NCI-H1876 (ATCC, cat. CRL-5902, RRID:CVCL_1503), DMS 114 (ATCC, cat. CRL-2066; RRID:CVCL_1174), NCI-H211 (ATCC, cat. CRL-5824; RRID:CVCL_1529), and SW 1271 (ATCC, cat. CRL-2177, RRID:CVCL_1716). The small cell lung cancer cell line COR-L88 was purchased from Sigma-Aldrich (cat. 92031917-1VL, RRID:CVCL_1141). The non-small cell lung cancer cell lines NCI-H226 (RRID:CVCL_1544) and NCI-H322M (RRID:CVCL_1557) were established at the NCI and grown from internal seed stocks. Pooled donor human umbilical vein endothelial cells (HUVEC, Lonza, cat. CC-2519) and human mesenchymal stem cells (hMSC, Lonza, cat. PT-2501) were purchased from Lonza (Walkersville, MD).
Cell Culture. All cells were maintained in an incubator at 37 degrees C and 5% CO2 with 95% humidity. […]

[1] = curve of first compound, second compound 0.003 µM
[2] = second compound 0.003 µM, first compound 0.0316 µM
[3] = second compound 0.003 µM, first compound 0.1 µM
[4] = second compound 0.003 µM, first compound 0.316 µM
[5] = second compound 0.003 µM, first compound 1 µM
[6] = second compound 0.003 µM, first compound 3.16 µM
[7] = second compound 0.003 µM, first compound 10 µM

CC1COCCN1c1cc(-c2ccnn2C)c2ccnc(-c3ccn[nH]3)c2n1 (configuration not stated) + COc1cc2c(cc1O)CCNC21CSC2c3c(OC(C)=O)c(C)c4c(c3C(COC1=O)N1C(O)C3Cc5cc(C)c(OC)c(O)c5C(C21)N3C)OCO4
pIC50 (curve of first compound, second compound 30 pM): > 7.50
pIC50 (curve of first compound, second compound 94.9 pM): > 7.50
pIC50 (curve of first compound, second compound 0.0003 µM): > 7.50
pIC50 (curve of first compound, second compound 0.000949 µM): > 7.50
pIC50 [1]: > 7.50
viability, T/C (second compound 30 pM, first compound 0.0316 µM): 47.3%
viability, T/C (second compound 30 pM, first compound 0.1 µM): 48.1%
viability, T/C (second compound 30 pM, first compound 0.316 µM): 42%
viability, T/C (second compound 30 pM, first compound 1 µM): 39.2%
viability, T/C (second compound 30 pM, first compound 3.16 µM): 31.1%
viability, T/C (second compound 30 pM, first compound 10 µM): 25.6%
viability, T/C (second compound 94.9 pM, first compound 0.0316 µM): 47.8%
viability, T/C (second compound 94.9 pM, first compound 0.1 µM): 44.8%
viability, T/C (second compound 94.9 pM, first compound 0.316 µM): 39.4%
viability, T/C (second compound 94.9 pM, first compound 1 µM): 33%
viability, T/C (second compound 94.9 pM, first compound 3.16 µM): 29.2%
viability, T/C (second compound 94.9 pM, first compound 10 µM): 25.6%
viability, T/C (second compound 0.0003 µM, first compound 0.0316 µM): 47.8%
viability, T/C (second compound 0.0003 µM, first compound 0.1 µM): 44.9%
viability, T/C (second compound 0.0003 µM, first compound 0.316 µM): 38.7%
viability, T/C (second compound 0.0003 µM, first compound 1 µM): 36.9%
viability, T/C (second compound 0.0003 µM, first compound 3.16 µM): 28.8%
viability, T/C (second compound 0.0003 µM, first compound 10 µM): 24.6%
viability, T/C (second compound 0.000949 µM, first compound 0.0316 µM): 45.4%
viability, T/C (second compound 0.000949 µM, first compound 0.1 µM): 41.2%
viability, T/C (second compound 0.000949 µM, first compound 0.316 µM): 39.4%
viability, T/C (second compound 0.000949 µM, first compound 1 µM): 31.3%
viability, T/C (second compound 0.000949 µM, first compound 3.16 µM): 24.2%
viability, T/C (second compound 0.000949 µM, first compound 10 µM): 20.7%
viability, T/C [2]: 12.2%
viability, T/C [3]: 11.1%
viability, T/C [4]: 10.5%
viability, T/C [5]: 6.65%
viability, T/C [6]: 5.18%
viability, T/C [7]: 4.99%

Cn1ncnc1[C@H]1c2n[nH]c(=O)c3cc(F)cc(c23)N[C@@H]1c1ccc(F)cc1
viability, T/C (compound 0.00949 µM): 84.8% and 85.2% and 73.3%
viability, T/C (compound 0.03 µM): 105% and 79.8% and 70.5%
viability, T/C (compound 0.0949 µM): 91.6% and 74.7% and 66.9%
viability, T/C (compound 0.3 µM): 76.3% and 66% and 60.6%
viability, T/C (compound 0.949 µM): 67.1% and 53.2% and 46.5%
viability, T/C (compound 3 µM): 62.9% and 51.3% and 43.7%
pIC50 (curve of compound): < 5.52 and 6.12

CC(C)n1c(=O)n(C)c2cnc3cc(F)c(-c4ccc(OCCCN5CCCCC5)nc4)cc3c21 + CC[C@@]1(O)C(=O)OCc2c1cc1n(c2=O)Cc2cc3c(CN(C)C)c(O)ccc3nc2-1
pIC50 [1]: 5.20
pIC50 (curve of first compound, second compound 0.00949 µM): > 7.50
pIC50 (curve of first compound, second compound 0.03 µM): > 7.50
pIC50 (curve of first compound, second compound 0.0949 µM): > 7.50
pIC50 (curve of first compound, second compound 0.3 µM): > 7.50
viability, T/C [2]: 65.9%
viability, T/C [3]: 52%
viability, T/C [4]: 79.9%
viability, T/C [5]: 97.3%
viability, T/C [6]: 59.6%
viability, T/C [7]: 38.8%
viability, T/C (second compound 0.00949 µM, first compound 0.0316 µM): 46.8%
viability, T/C (second compound 0.00949 µM, first compound 0.1 µM): 41.3%
viability, T/C (second compound 0.00949 µM, first compound 0.316 µM): 50.5%
viability, T/C (second compound 0.00949 µM, first compound 1 µM): 41.3%
viability, T/C (second compound 0.00949 µM, first compound 3.16 µM): 50.3%
viability, T/C (second compound 0.00949 µM, first compound 10 µM): 34.6%
viability, T/C (second compound 0.03 µM, first compound 0.0316 µM): 35.4%
viability, T/C (second compound 0.03 µM, first compound 0.1 µM): 33.4%
viability, T/C (second compound 0.03 µM, first compound 0.316 µM): 38.9%
viability, T/C (second compound 0.03 µM, first compound 1 µM): 44.5%
viability, T/C (second compound 0.03 µM, first compound 3.16 µM): 44.1%
viability, T/C (second compound 0.03 µM, first compound 10 µM): 31.8%
viability, T/C (second compound 0.0949 µM, first compound 0.0316 µM): 34.6%
viability, T/C (second compound 0.0949 µM, first compound 0.1 µM): 35.2%
viability, T/C (second compound 0.0949 µM, first compound 0.316 µM): 35.5%
viability, T/C (second compound 0.0949 µM, first compound 1 µM): 39.8%
viability, T/C (second compound 0.0949 µM, first compound 3.16 µM): 37.8%
viability, T/C (second compound 0.0949 µM, first compound 10 µM): 32.6%
viability, T/C (second compound 0.3 µM, first compound 0.0316 µM): 30.2%
viability, T/C (second compound 0.3 µM, first compound 0.1 µM): 29%
viability, T/C (second compound 0.3 µM, first compound 0.316 µM): 31.4%
viability, T/C (second compound 0.3 µM, first compound 1 µM): 34.9%
viability, T/C (second compound 0.3 µM, first compound 3.16 µM): 36.5%
viability, T/C (second compound 0.3 µM, first compound 10 µM): 29.1%
